Measured values as given in paper PMC4886532, “A highly soluble, non-phototoxic, non-fluorescent blebbistatin derivative” (Scientific Reports, 2016).
≈ marks a conversion by molar mass, not a printed value.

Tests used:
M2 cells = assay: Inhibition of blebbing (blebbing index) of M2 cells; format: cell-based, human
Method: Next, we compared the non-muscle myosin II inhibition by para-aminoblebbistatin, para-nitroblebbistatin and blebbistatin in human melanoma (M2) and HeLa cells. As blebbistatin acquired its name from its ability to block blebbing of M2 cells, we compared blebbing indices[17] of M2 cells in time, incubated in the three different myosin II inhibitors at different concentrations (Fig. 3c–e). Even 5 μM concentrations of the myosin II inhibitors achieved significant decrease in the blebbing indices of the cells within an hour, whereas higher concentrations of the inhibitors completely stopped blebbing of the cells within >40–60 minutes (10 μM) or >20 minutes (25 and 50 μM).
For blebbing index determination, M2 cells were incubated for 30 minutes in PBS in every case prior to the addition of inhibitors, in order to initiate extensive blebbing. Blebbing of the cells was monitored before as well as after inhibitor addition to the cells. DMSO concentration was 0.1 vol/vol% in all experiments. Blebbing index was calculated by summing the initiated blebs in a 5-minute interval (starting at the indicated time points) on a given standard area[17] (whole cells with similar size, diameter = 12 ± 1 μm) and normalizing it to the blebbing index prior to inhibitor treatment.

[1] = target: T1, rabbit skeletal muscle myosin S1 (SkS1) (Oryctolagus cuniculus, UniProt Q28641); assay: Steady state basal ATPase, SkS1; format: biochemical; conditions: 25 °C
T1 construct: SkS1 (rabbit skeletal S1 fragment); from tissue; host or cells: rabbit skeletal muscle

[2] = test system: cldnb:gfp zebrafish embryos; assay: Posterior lateral line primordium (pLLp) migration; format: in vivo, zebrafish (Danio rerio); conditions: 20 μM, 24 hours of incubation
Method: However, the highly fluorescent, dense precipitates of blebbistatin disturb imaging in the GFP channel of the microscope. […] In this experiment, cldnb:gfp zebrafish embryos were imaged by an epifluorescent microscope after 24 hours of incubation in the presence of 20 μM concentrations of the indicated inhibitors (Fig. 4d) in order to detect the effect of myosin II inhibition on the proliferating leading edge of the posterior lateral line primordium (pLLp)[21] and visualize the effect of the precipitates by epifluorescent microcopy. […] In the case of para-aminoblebbistatin treatment, the GFP signal of the migrating pLLp can be visualized clearly, while the precipitates of the two other inhibitors highly disturbed the imaging.

[3] = Solubility assays in assay buffer (supernatant concentration after centrifugation); conditions: for Solubility: room temperature
Method: 50 μM of the inhibitors were dissolved in assay buffer (see Experimental Procedures) containing 0.1 or 1 vol/vol% DMSO, centrifuged at the indicated times and the concentration of the supernatants were determined at each time point (Fig. 2a,b).
The DMSO content was 1%. […] The experiments were repeated three times.

[4] = target: T1, rabbit skeletal muscle myosin S1 (SkS1); assay: Steady state actin activated ATPase, SkS1; format: biochemical; conditions: for IC50: 45 μM actin, 25 °C
Method: […]. Myosin and actin together with the indicated concentration of the inhibitor were pre-incubated for 5 minutes at room temperature and the measurements were initiated with 1 mM ATP. Data were corrected for background ATPase activity of actin. G-actin was prepared accordingly from rabbit skeletal muscle[24] and polymerized by 2 mM MgCl2 for 1 hour at room temperature. Measurements were performed in low salt buffer containing 5 mM HEPES, 2 mM MgCl2, 0.1 mM EGTA and 2 mM DTT at pH 7.2 or assay buffer containing 20 mM HEPES, 40 mM NaCl, 4 mM MgCl2 at pH 7.3 for basal ATPase activity measurements with DdMD.

HeLa cells = assay: Wound healing assay (cell motility); format: cell-based, human; conditions: 20 μM, 24 hours, uncoated glass; 100% = total diameter of the wound; control 30.6 ± 5.4%
Method: For wound healing assays, 200 μl of HeLa cells were plated on 35 mm borosilicate glass imaging dishes at 300,000 cells/ml concentrations and incubated for 24 hours. 1 hour prior to wounding, cells were incubated in 20 μM of the different myosin II inhibitors. After one hour, scratches were made with pipette tips in monolayer cultures and the motility of cells for occupying the wound was monitored for 24 hours with a Foculus Digital Camera (IEEE1394). Analysis of cell motility was carried out by ImageJ, by measuring the distance between two lines fitted on the two sides of the approaching cell edges created by the pipette tips.

[5] = test system: zebrafish skeletal muscle; assay: Fast escape response (C-start), maximal angular velocity; format: in vivo, zebrafish (Danio rerio); conditions: 2 μM
Method: (§1) Since the myosin II inhibitors decrease the ATPase activity of SkS1 in vitro, we tested their inhibition on zebrafish skeletal muscle in vivo. We investigated the fast escape response (C-start) reflex of 6 dpf fish evoked by standardized tapping stimuli (Video 1). […] The velocity of the rotating heads of the embryos were quantified (maximal angular velocity) in the absence and in the presence of increasing concentrations of the myosin II inhibitors (2, 5, 10, 20 μM), monitored for 4 hours. The half maximal effective concentration (EC50) values for the inhibition of the maximal angular velocity by the myosin II inhibitors are below 2 μM since even at 2 μM the inhibitory effects were >90% for all inhibitors. We experienced that the inhibitory effect of para-aminoblebbistatin is exerted much slower than that of blebbistatin and para-nitroblebbistatin, probably due to its slower uptake (half inhibitions at […], respectively) (Supplementary Figure 1). To further evaluate the specificity of blebbistatin and its derivatives on different myosin II isoforms, we examined the effect of the inhibitors on 6 dpf (days post fertilization) zebrafish heart muscle in vivo. We monitored heart beating and the amplitude of heart muscle contraction before and after the addition of 20 μM of the inhibitors to the specimens.
(§2) The tapping force was standardized. […] For the cytotoxicity assay, zebrafish embryos were incubated in E3 medium containing 0 μM (Control), 5 μM, 10 μM or 20 μM of para-aminoblebbistatin, para-nitroblebbistatin or blebbistatin in 0.1 vol/vol% final concentration of DMSO and monitored for 70 hours.

zebrafish heart muscle = assay: Heart beating and amplitude of heart muscle contraction; format: in vivo, zebrafish (Danio rerio); conditions: 20 μM, 6 dpf
Method: as §1, §2

smooth muscle myosin II = test system: smooth muscle myosin II; parameters: method as in PMID 15548862; conditions: read-out: IC50 actin activated ATPase activity; cited from earlier work

T1 sequence (Q28641 1-844 limits assumed): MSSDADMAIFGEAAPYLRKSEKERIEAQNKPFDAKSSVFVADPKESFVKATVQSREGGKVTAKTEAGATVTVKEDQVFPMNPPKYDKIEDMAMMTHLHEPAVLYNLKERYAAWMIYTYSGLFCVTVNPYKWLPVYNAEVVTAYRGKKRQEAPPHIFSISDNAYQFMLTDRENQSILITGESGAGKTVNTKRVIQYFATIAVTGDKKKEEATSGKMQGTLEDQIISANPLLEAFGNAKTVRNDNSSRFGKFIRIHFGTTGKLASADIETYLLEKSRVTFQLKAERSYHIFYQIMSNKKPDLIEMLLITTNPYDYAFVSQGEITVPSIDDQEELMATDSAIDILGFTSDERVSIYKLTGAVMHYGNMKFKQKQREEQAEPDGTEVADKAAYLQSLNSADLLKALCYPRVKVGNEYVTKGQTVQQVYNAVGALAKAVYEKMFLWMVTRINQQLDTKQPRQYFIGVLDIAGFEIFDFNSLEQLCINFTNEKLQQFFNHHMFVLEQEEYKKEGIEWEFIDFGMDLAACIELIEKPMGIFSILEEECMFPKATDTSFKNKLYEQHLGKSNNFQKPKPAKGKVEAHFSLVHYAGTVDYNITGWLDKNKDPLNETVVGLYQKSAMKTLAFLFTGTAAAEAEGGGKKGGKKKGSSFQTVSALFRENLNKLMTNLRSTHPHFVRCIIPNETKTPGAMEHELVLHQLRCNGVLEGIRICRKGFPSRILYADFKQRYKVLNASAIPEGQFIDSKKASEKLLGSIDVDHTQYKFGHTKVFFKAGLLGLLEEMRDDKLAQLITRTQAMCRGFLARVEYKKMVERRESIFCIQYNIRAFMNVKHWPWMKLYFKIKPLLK
T1 sequence (P02602 whole entry partner, the tested form may be a part): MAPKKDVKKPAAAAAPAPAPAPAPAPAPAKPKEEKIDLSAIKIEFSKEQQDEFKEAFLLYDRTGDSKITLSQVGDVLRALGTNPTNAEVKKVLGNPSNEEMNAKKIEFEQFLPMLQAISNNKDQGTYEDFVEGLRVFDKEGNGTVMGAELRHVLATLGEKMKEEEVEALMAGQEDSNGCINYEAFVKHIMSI

| SMILES | Time constant τ of inhibition of blebbing (M2 cells; 5 μM) [min] | Time constant τ of inhibition of blebbing (M2 cells; 10 μM) [min] | Time constant τ of inhibition of blebbing (M2 cells; 25 μM) [min] | Time constant τ of inhibition of blebbing (M2 cells; 50 μM) [min] | IC50 [1] [nM] | Effect on pLLp migration [2] | Concentration at which stable solutions are formed [3] | IC50 [4] [nM] | Fold higher IC50 of AmBleb on SkS1 ([4]; comparator not named (matches ratio to Bleb)) [times] | Relative migration of HeLa cells (HeLa cells) [%] | Half inhibition time of maximal angular velocity [5] [h] | Time within which amplitude of contraction and blood circulation dropped drastically (zebrafish heart muscle) | IC50 (smooth muscle myosin II) [nM] | Solubility ([3]; 0.1 vol/vol% DMSO in assay buffer) [µM] | Solubility ([3]; 1 vol/vol% DMSO in assay buffer) [µM] | Solubility in aqueous buffer ([3]; abstract statement) | Time to drop to half concentration (precipitation kinetics) ([3]; freshly prepared 50 μM sample) [min] | Equilibrium saturation concentration ([3]; reached in two hours from 50–100 μM) [µM] |
| --- | --- | --- | --- | --- | --- | --- | --- | --- | --- | --- | --- | --- | --- | --- | --- | --- | --- | --- |
| Cc1ccc2c(c1)C(=O)[C@]1(O)CCN(c3ccc(N)cc3)C1=N2 [para-aminoblebbistatin] | 25.0 ± 4.3 | 16.8 ± 1.6 | 9.9 ± 0.3 | 7.8 ± 0.3 | 1300 ± 100 | halted pLLp migration | over 100 μM | 470 ± 60 | 4.3 | 62.6 ± 3.6 | 3.2 | within three hours | – | – | – | – | – | – |
| Cc1ccc2c(c1)C(=O)C1(O)CCN(c3ccccc3)C1=N2 (stereo not drawn) [blebbistatin] | 24.6 ± 2 | 10.5 ± 0.8 | 5.4 ± 1 | – | 300 ± 30 | halted pLLp migration | – | 110 ± 9 | – | 51.4 ± 4.7 | 0.6 | within the first hour | 79600 | 10.9 ± 0.9 (≈ 3.19 µg/mL) | 9.3 ± 0.7 (≈ 2.72 µg/mL) | below 10 micromolar | < 20 | 9 |
